Reference: article PMC7797697 (Theranostics, 2021)

Assays:
MDA-MB-231 cells [1] = test: TUNEL assay; format: cell-based, human; conditions: compared to DMSO treatment
Description: Apoptosis was detected using a Cell Death Detection Fluorescein Kit for TUNEL assay (RiboBio, Guangzhou, China) according to the manufacturer's instructions. […] Signals were detected by fluorescence microscopy. Non-apoptotic cells were visualized under a DAPI (4′,6-diamidino-2-phenylindole) filter.

[2] = tested on: MDA-MB-231 and primary breast tumor cells; test: EdU incorporation assay; format: cell-based, human; conditions: compared to DMSO treatment
Description: After that, DNA proliferation was detected using an EdU assay kit according to the manufacturer's instructions (RiboBio, Guangzhou, China).

[3] = tested on: non-breast cancer cell lines; test: CCK8 assay IC50, panel summary; format: cell-based; conditions: panel of non-breast cancer cell lines, 72 h
Experimental: (§1) Cell viability was then detected using a CCK8 assay (MedChemExpress, USA) according to the manufacturer's instructions.
(§2) Statistical analyses of all data were performed using GraphPad Prism (version 8.0, Graph Pad Software Inc., San Diego, CA, USA). All the data were analyzed by Student's t-test or one-way ANOVA. The Z-Score was chosen to evaluate the results and experimental deviation. Quantitative data are presented as the mean ± SD. The asterisk (*) denotes statistically significant difference (P < 0.05). IC50 was calculated using a four-parameter fit with variable slope in GraphPad Prism.

[4] = tested on: MDA-MB-231, T-47D, and primary breast tumor cells; test: Wound-healing assay; format: cell-based, human; conditions: compared with DMSO treatment, P < 0.05
Experimental: Tumor cell migration was determined by the wound healing assay. […] After treatment, a straight scratch was made onto the cell monolayer using a pipette tip. The cells were washed with PBS three times to remove the floating cells, and the cells were cultured in serum-free medium for 24 h. Cell wound edges were captured using a light microscope.

MDA-MB-231 cells [5] = test: Intracellular calcium measurement (Fluo-4-AM); format: cell-based, human; conditions: 100 nM or 200 nM for 24 h
Experimental: After treatment, the cells were digested and seeded in 96-well black plates (Corning Costar, Cambridge, MA, USA) and cultured for 20 h. For measurement of [Ca^2+]i, the cells were labeled with Fluo-4-AM in serum-free medium for half an hour at room temperature. After washing with Dulbecco's Phosphate Buffered Saline (D-PBS), cells were overlaid in Hank's balanced salt solution (5.4 mM KCl, 1 mM MgCl2, 20 mM hydroxyethyl piperazineethanesulfonic acid (HEPES), 120 mM NaCl, 10 mM glucose, 0.2 mM Ethylenebis(oxyethylenenitrilo)tetraacetic acid (EGTA)). Continuous fluorescence intensity was detected after thrombin was added as a calcium agonist by an automated sampler. Response over baseline was assessed as a relative measure of [Ca^2+]i.
As previously stated, studies have shown that the Ca^2+ signals can modulate cancer progression by regulating migration, proliferation, cell stress, and apoptosis.

[6] = tested on: MDA-MB-231, T-47D, and primary breast tumor cells; test: Colony formation assay; format: cell-based, human; conditions: crystal violet staining
Experimental: The colony-formation ability of MDA-MB-231 and T-47D cells were measured by the clonogenic assay. […] After treatment, cells were digested and suspended in culture medium at a density of 5 × 10^3 cells/ml. Cells (2,000 cells per well) were seeded into 6-well plates and cultured for two weeks. The, cells were fixed with 4% formaldehyde and washed with phosphate-buffered saline (PBS) and stained with crystal violet for half an hour. Images of colonies were captured using a light microscope.

histone deacetylase = test: Western blot of acetylated histone H3 and acetylated α-tubulin; format: cell-based, human; conditions: MDA-MB-231 cells, 100 or 200 nM, 24-72 h
Experimental: Total protein was assessed by sodium dodecyl sulfate-polyacrylamide gel electrophoresis using 10% or 15% gels, followed by immunoblotting with the following antibodies. Anti-glyceraldehyde 3-phosphate dehydrogenase (GAPDH) antibody (AC002) was purchased from ABclonal Technology (Woburn, MA, USA); anti-PLCβ3 antibody (14247) was purchased from Cell Signaling Technology (Danvers, MA, USA); anti-β-actin antibody (ab8226) and anti-histone H3 antibody (ab1791) were purchased from Abcam (Cambridge, UK); anti-ace tubulin antibody (66200-1-lg) was purchased from Proteintech Group (Rosemont, IL, USA); anti-γ-catenin antibody was purchased from BD Biosciences (Franklin Lakes, NJ, USA). The GAPDH and β-actin content were analyzed as the loading control.

[7] = Pathological examination (H&E) of main organs; format: in vivo, nude mice; conditions: i.v., 50 mg/kg, every other day for four weeks
Experimental: MDA-MB-231 (5 × 10^6 cells) were inoculated into the left abdominal mammary fat pad of 6-week-old female nude mice, and tumor growth was monitored. […] After four weeks of treatment, all mice were sacrificed according to ethical guidelines. Tumors were excised and analyzed. Tumor volume was measured using a Vernier caliper and calculated according to the following formula: π/6 × length × width^2. All animal handling and procedures were approved by the Capital Medical University Institutional Animal Care. Tumor and adjacent tissues were rapidly fixed in 4% paraformaldehyde (Sigma-Aldrich) for at least 24 h and embedded in paraffin for microscopic examination. From the prepared paraffin blocks, 5-μm thick sections were cut and stained with hematoxylin and eosin (H&E) for light microscopic observation. Sections were processed as per standard protocols using 3,3'-diaminobenzidine (DAB) staining. All human and mouse tissues were collected according to protocols approved by the Ethics Committee of Capital Medical University, and informed consent was obtained from all patients.

HUVEC = test: CCK8 assay IC50; format: cell-based, human; conditions: 72 h, normal cells
Experimental: as §1, §2

MDA-MB-231 = test: CCK8 assay IC50; format: cell-based, human; conditions: Homo sapiens; MDA-MB-231, 72 h, CCK8, value of the text
Experimental: as §1, §2

PANC-1 = test: CCK8 assay IC50; format: cell-based; conditions: Homo sapiens, PANC-1, pancreatic cancer, 72 h
Experimental: as §1, §2

Caco-2 = test: CCK8 assay IC50; format: cell-based; conditions: Homo sapiens, Caco-2, colon cancer, 72 h
Experimental: as §1, §2

HCT-15 = test: CCK8 assay IC50; format: cell-based; conditions: Homo sapiens, HCT-15, colon cancer, 72 h
Experimental: as §1, §2

HeLa = test: CCK8 assay IC50; format: cell-based; conditions: Homo sapiens, cervical cancer, 72 h
Experimental: as §1, §2

T-47D = test: CCK8 assay IC50; format: cell-based; conditions: Homo sapiens, T47D, breast cancer, 72 h
Experimental: as §1, §2

MCF-7 = test: CCK8 assay IC50; format: cell-based; conditions: Homo sapiens, MCF7; MCF-7, 72 h, CCK8, value of the text
Experimental: as §1, §2

SMMC-7721 = test: CCK8 assay IC50; format: cell-based; conditions: Homo sapiens, SMMC-7721, liver cancer, 72 h
Experimental: as §1, §2

PC-3 = test: CCK8 assay IC50; format: cell-based; conditions: Homo sapiens, PC-3, prostatic cancer, 72 h
Experimental: as §1, §2

A549 = test: CCK8 assay IC50; format: cell-based; conditions: Homo sapiens, A549, lung cancer, 72 h
Experimental: as §1, §2

SH-SY5Y = test: CCK8 assay IC50; format: cell-based; conditions: Homo sapiens, neuroblastoma, 72 h
Experimental: as §1, §2

RGS2 promoter = test: qChIP of H3 acetylation; format: cell-based; conditions: MDA-MB-231, T-47D and 4T1 cells
Experimental: Briefly, the cells were cross-linked with 1% formaldehyde, sonicated, pre-cleared, and incubated with 4 μg of Ace-H3 antibody or IgG, which was followed by the addition of Dynabeads Protein G. Next, the beads were washed with high- and low-salt-concentration buffers, and DNA was eluted and purified using the QIAquick PCR Purification Kit. The amount of the DNA template was analyzed by qPCR using primers specific for five promoter regions.

IC50 [3]: > 1000 nM
IC50 (MDA-MB-231): 663 nM
IC50 (PANC-1): 3000 nM
IC50 (Caco-2): 2000 nM
IC50 (HCT-15): 33000 nM
IC50 (HeLa): 1820 nM
IC50 (T-47D): 2630 nM
IC50 (MCF-7): 896 nM
IC50 (SMMC-7721): 12000 nM
IC50 (PC-3): 1220 nM
IC50 (A549): 1160 nM
IC50 (SH-SY5Y): 6000 nM
SMILES: CN(C)Cc1c(C(=O)NCCOc2ccc(C(=O)NO)cc2)oc2ccccc12 [PCI-24781]
apoptosis (TUNEL) (MDA-MB-231 cells [1]): higher rate of apoptosis
cell proliferation (EdU incorporation) [2]: decreased proliferation
wound closure (cell migration) [4]: significant delay
influx of intracellular calcium ions induced by thrombin, ionomycin, and carbachol (MDA-MB-231 cells [5]): completely inhibited
colony formation [6]: decreased colony formation
acetylated histone H3 and acetylated α-tubulin levels (histone deacetylase): time-dependent and dose-dependent accumulation of acetylated histone H3 (H3) and acetylated α-tubulin
histological changes in the main organs (heart, liver, lung, spleen, and kidney) [7]: did not exhibit serious histological changes
IC50 (HUVEC; Homo sapiens): 4200 nM
IC50 (HUVEC): 4170 nM
H3 acetylation at RGS2 promoter regions (qChIP) (RGS2 promoter): strong binding to RGS2 #2 and #3 promoter regions of H3 acetylation
